Laboratory results published in patent publication US9320722B2, “Regulators of aldehyde dehydrogenase ALDH3A1 and related therapeutic methods” (Indiana University Research and Technology Corporation, priority 2013, dated 2016).

Molecular target: ALDH2 (Homo sapiens (Human), UniProt P05091)
Assay: ALDH2 dehydrogenase activity / IC50 determination (propionaldehyde substrate)
Assay type: biochemical
Settings: Table 4, hits from ChemDiv screen; NI not defined; read-out: IC50 (micromolar) ALDH2

ALDH2, sequence (P05091 18-517): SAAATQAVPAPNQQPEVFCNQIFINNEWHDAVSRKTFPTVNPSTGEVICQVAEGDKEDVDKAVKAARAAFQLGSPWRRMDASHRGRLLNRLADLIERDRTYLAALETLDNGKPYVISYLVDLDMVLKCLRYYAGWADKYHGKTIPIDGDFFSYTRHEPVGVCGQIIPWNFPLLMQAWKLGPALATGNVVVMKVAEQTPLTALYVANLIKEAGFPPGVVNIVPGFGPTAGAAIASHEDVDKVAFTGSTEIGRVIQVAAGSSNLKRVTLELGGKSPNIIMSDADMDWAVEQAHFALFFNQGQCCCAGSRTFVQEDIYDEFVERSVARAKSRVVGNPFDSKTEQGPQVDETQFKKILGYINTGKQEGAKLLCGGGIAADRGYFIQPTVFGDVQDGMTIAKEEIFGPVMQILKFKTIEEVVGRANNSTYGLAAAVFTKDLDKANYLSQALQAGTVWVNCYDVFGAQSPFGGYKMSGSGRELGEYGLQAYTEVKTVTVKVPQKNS

| SMILES | IC50 |
| --- | --- |
| CCn1c(-c2ccc(OC)c(F)c2)cs/c1=N/c1ccccc1 [CD13] | 7.3 µM |
| CCCC1C(C#N)=C(SCC(=O)c2ccc(Br)cc2)NC(C)=C1C(C)=O (centres unmarked) [CD14] | 13.7 µM |

Same assay, conditions: up to 250 μM

| SMILES | inhibition toward ALDH2 |
| --- | --- |
| CC(=O)Nc1ccc(Nc2ccc(S(C)(=O)=O)cc2[N+](=O)[O-])cc1 [CB29, N-[4-{(4-(methylsulfonyl)-2-nitrophenyl)-4-amino}-phenyl]-acetamide] | < 5% |

Molecular target: ALDH1A1 (Homo sapiens (Human), UniProt P00352)
Sequence (P00352 whole entry): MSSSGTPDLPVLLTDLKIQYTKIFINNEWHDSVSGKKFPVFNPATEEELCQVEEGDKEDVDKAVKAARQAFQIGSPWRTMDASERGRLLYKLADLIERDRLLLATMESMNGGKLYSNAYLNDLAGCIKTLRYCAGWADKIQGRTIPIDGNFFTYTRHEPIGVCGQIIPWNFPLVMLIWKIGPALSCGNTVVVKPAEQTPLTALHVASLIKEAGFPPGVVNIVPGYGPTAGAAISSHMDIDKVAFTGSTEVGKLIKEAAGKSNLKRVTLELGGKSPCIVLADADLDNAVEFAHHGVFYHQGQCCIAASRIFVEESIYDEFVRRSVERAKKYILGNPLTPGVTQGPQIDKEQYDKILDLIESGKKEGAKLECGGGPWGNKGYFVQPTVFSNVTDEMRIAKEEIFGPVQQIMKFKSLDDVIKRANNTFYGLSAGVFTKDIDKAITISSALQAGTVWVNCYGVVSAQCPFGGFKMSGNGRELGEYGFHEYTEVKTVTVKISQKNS
Assay: ALDH1A1 dehydrogenase activity / IC50 determination (propionaldehyde substrate)
Assay type: biochemical
Settings: Table 4, hits from ChemDiv screen; read-out: IC50 (micromolar) ALDH1A1

| SMILES | IC50 |
| --- | --- |
| CCOC(=O)CN1C(=O)C(O)(CC(=O)c2ccccn2)c2ccccc21 (centres unmarked) [CD7] | 0.7 µM |
| CCn1c(-c2ccc(OC)c(F)c2)cs/c1=N/c1ccccc1 [CD13] | 6.3 µM |
| CCCC1C(C#N)=C(SCC(=O)c2ccc(Br)cc2)NC(C)=C1C(C)=O (centres unmarked) [CD14] | 10.4 µM |
| Cc1cccc(C(=O)CN2CCN(S(=O)(=O)c3cc(Cl)ccc3Cl)CC2)c1 [CD20] | 33 µM |

Same assay, conditions: Tables 1A/1B; propionaldehyde substrate; S.D. in parentheses

| SMILES | IC50 (micromolar) ALDH1A1 |
| --- | --- |
| Cc1ccc(C)c(Nc2ccc(S(C)(=O)=O)cc2[N+](=O)[O-])c1 [Compound 7] | WA (WA represents (30-50) % activation shown by 100 μM compound to respective enzymes) |

Same assay, conditions: up to 250 μM

| SMILES | inhibition toward ALDH1A1 |
| --- | --- |
| CC(=O)Nc1ccc(Nc2ccc(S(C)(=O)=O)cc2[N+](=O)[O-])cc1 [CB29, N-[4-{(4-(methylsulfonyl)-2-nitrophenyl)-4-amino}-phenyl]-acetamide] | < 5% |

Molecular target: T1, ALDH3A1 (Homo sapiens (Human), UniProt P30838)
T1 sequence (P30838 whole entry): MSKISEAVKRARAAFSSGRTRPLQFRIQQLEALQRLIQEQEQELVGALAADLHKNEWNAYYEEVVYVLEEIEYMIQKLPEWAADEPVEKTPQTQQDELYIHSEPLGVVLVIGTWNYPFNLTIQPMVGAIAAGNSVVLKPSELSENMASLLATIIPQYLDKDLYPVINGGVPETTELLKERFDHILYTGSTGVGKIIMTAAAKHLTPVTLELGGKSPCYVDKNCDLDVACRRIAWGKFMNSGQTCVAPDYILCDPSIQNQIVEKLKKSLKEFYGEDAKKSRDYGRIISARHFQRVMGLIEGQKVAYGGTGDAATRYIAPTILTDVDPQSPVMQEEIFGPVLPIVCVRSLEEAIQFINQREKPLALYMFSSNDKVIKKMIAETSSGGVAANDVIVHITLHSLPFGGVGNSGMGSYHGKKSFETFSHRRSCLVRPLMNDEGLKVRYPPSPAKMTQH
Assay: not given
Assay type: biochemical
Settings: wt ALDH3A1

| Propionaldehyde Kcat/Km | SMILES |
| --- | --- |
| 0.05 ± 0.003 min⁻¹ µM⁻¹ | CCC=O [Propionaldehyde] |

Same assay, conditions: wt ALDH3A1; listed as propionaldehyde

| Propionaldehyde Kcat/Km | SMILES |
| --- | --- |
| 0.05 min⁻¹ µM⁻¹ | CCC=O [Propionaldehyde] |

Same assay, conditions: wt ALDH3A1; read-out: Propionaldehyde Km

| Km | SMILES |
| --- | --- |
| 20.5 ± 0.272 mM | CCC=O [Propionaldehyde] |

Molecular target: ALDH3A1 Q122A mutant (Homo sapiens (Human), UniProt P30838, Q123A)
Sequence (P30838 whole entry Q123A): as the sequence (P30838 whole entry) above, with Q123A counted along it
Assay: not given
Settings: not given
Experimental: (§1) These two mutant proteins were purified exactly the same way as was ALDH3A1. […] Kinetic experiments were performed exactly the same way as the wild type (WT) enzyme.

| Propionaldehyde Kcat/Km | SMILES |
| --- | --- |
| 0.049 ± 0.003 min⁻¹ µM⁻¹ | CCC=O [Propionaldehyde] |

Same assay, conditions: listed as propionaldehyde

| Propionaldehyde Kcat/Km | SMILES |
| --- | --- |
| 0.049 min⁻¹ µM⁻¹ | CCC=O [Propionaldehyde] |

Same assay, conditions: read-out: Propionaldehyde Km

| Km | SMILES |
| --- | --- |
| 23.9 ± 1.99 mM | CCC=O [Propionaldehyde] |

Molecular target: ALDH3A1 Q122W mutant (Homo sapiens (Human), UniProt P30838, Q123W)
Sequence (P30838 whole entry Q123W): as the sequence (P30838 whole entry) above, with Q123W counted along it
Assay: not given
Settings: not given
Experimental: as §1

| Propionaldehyde Kcat/Km | SMILES |
| --- | --- |
| 0.039 ± 0.005 min⁻¹ µM⁻¹ | CCC=O [Propionaldehyde] |

Same assay, conditions: listed as propionaldehyde

| Propionaldehyde Kcat/Km | SMILES |
| --- | --- |
| 0.039 min⁻¹ µM⁻¹ | CCC=O [Propionaldehyde] |

Same assay, conditions: read-out: Propionaldehyde Km

| Km | SMILES |
| --- | --- |
| 5.36 ± 0.59 mM | CCC=O [Propionaldehyde] |

Molecular target: ALDH3A1 activity in A549 cell lysates (Homo sapiens (Human), UniProt P30838)
Sequence (P30838 whole entry): as the sequence (P30838 whole entry) above
Assay: not given
Assay type: biochemical
Settings: 50 μM CB29

| SMILES | decrease of ALDH3A1 activity in A549 cell lysate |
| --- | --- |
| CC(=O)Nc1ccc(Nc2ccc(S(C)(=O)=O)cc2[N+](=O)[O-])cc1 [CB29, N-[4-{(4-(methylsulfonyl)-2-nitrophenyl)-4-amino}-phenyl]-acetamide] | > 95% |

Molecular target: ALDH3A1 activity in SF767 cell lysates (Homo sapiens (Human), UniProt P30838)
Sequence (P30838 whole entry): as above
Assay: not given
Assay type: biochemical
Settings: 50 μM CB29

| SMILES | decrease of ALDH3A1 activity in SF767 cell lysate |
| --- | --- |
| CC(=O)Nc1ccc(Nc2ccc(S(C)(=O)=O)cc2[N+](=O)[O-])cc1 [CB29, N-[4-{(4-(methylsulfonyl)-2-nitrophenyl)-4-amino}-phenyl]-acetamide] | > 90% |

Molecular target: T1, ALDH3A1
Assay: not given
Assay type: biochemical
Settings: 50 μM CB29

| SMILES | decrease of activity of recombinant ALDH3A1 |
| --- | --- |
| CC(=O)Nc1ccc(Nc2ccc(S(C)(=O)=O)cc2[N+](=O)[O-])cc1 [CB29, N-[4-{(4-(methylsulfonyl)-2-nitrophenyl)-4-amino}-phenyl]-acetamide] | ~97% |

System: SF767 cells
Assay: MTT assay for cell proliferation / mafosfamide sensitivity, SF767
Assay type: cell-based
Settings: 10 μM inhibitor + mafosfamide

| SMILES | chemosensitivity to mafosfamide (in words), SF767 |
| --- | --- |
| Cc1nc2ccccc2n1S(=O)(=O)c1ccc(Cl)cc1 [Compound A20] | significantly increased chemosensitivity |
| O=S(=O)(c1ccc(Cl)cc1)n1cnc2ccccc21 [Compound A21] | significantly increased chemosensitivity |
| CC(=O)c1nc2ccccc2n1S(=O)(=O)c1ccc(Cl)cc1 [Compound B37] | significantly increased chemosensitivity |

Same assay, conditions: 50 μM inhibitor; 146±2 μM without inhibitor

| SMILES | ED50 value of mafosfamide in the presence of inhibitor, SF767 |
| --- | --- |
| CC(=O)Nc1ccc(Nc2ccc(S(C)(=O)=O)cc2[N+](=O)[O-])cc1 [CB29, N-[4-{(4-(methylsulfonyl)-2-nitrophenyl)-4-amino}-phenyl]-acetamide] | 92 ± 4 µM |

System: not listed separately
Assay: Solubility
Assay type: physicochemical
Settings: not given

| SMILES | solubility (in words) |
| --- | --- |
| Cc1nc2ccccc2n1S(=O)(=O)c1ccc(F)cc1 [CB7, 1-[(4-fluorophenyl)sulfonyl]-2-methyl-1H-benzimidazole] | very good solubility |

Same assay, conditions: in the presence of […] DMSO

| SMILES | concentration of homogenous solution easily formed |
| --- | --- |
| CC(=O)Nc1ccc(Nc2ccc(S(C)(=O)=O)cc2[N+](=O)[O-])cc1 [CB29, N-[4-{(4-(methylsulfonyl)-2-nitrophenyl)-4-amino}-phenyl]-acetamide] | ≥ 100 µM |

Molecular target: T1, ALDH3A1
Assay: not given
Settings: read-out: ALDH3A1 IC50 (micromolar); Table 4(B), hits from ChemBridge screen

| SMILES | IC50 |
| --- | --- |
| N#CSCCCCOc1ccc(Cl)cc1 [CB1] | 3.7 µM |

Same assay, conditions: read-out: IC50 (micromolar) ALDH3A1; Table 4, hits from ChemDiv screen

| SMILES | IC50 |
| --- | --- |
| CCOC(=O)CN1C(=O)C(O)(CC(=O)c2ccccn2)c2ccccc21 (centres unmarked) [CD7] | 25.5 µM |
| CCn1c(-c2ccc(OC)c(F)c2)cs/c1=N/c1ccccc1 [CD13] | 60 µM |
| CCCC1C(C#N)=C(SCC(=O)c2ccc(Br)cc2)NC(C)=C1C(C)=O (centres unmarked) [CD14] | 71.5 µM |
| Cc1cccc(C(=O)CN2CCN(S(=O)(=O)c3cc(Cl)ccc3Cl)CC2)c1 [CD20] | 41 µM |
